Experimental data taken from EP1149836B1, “Polynalbuphine derivatives” (Hu, Oliver Yoa-Pu, priority 2000, dated 2001).
Where “and” joins values, the source holds several entries; their conditions need not be identical. Identical values can stand only once. Counter-ions that a name gives are not always drawn.

Key:
[1] = pharmacokinetic study of long acting preparation in Beagle dog; parameters: species or system Beagle dogs; conditions: in vivo, comparison with sebacoyl dinalbuphine ester, read-out: half life for excretion (converted)
[2] = cold ethanol tail flick test, dose response and MonoNalbuphine derivative study; conditions: rats; for maximal analgesic effect found at (dose): intramuscularly injection, Figure 4
Description: Each group consisted of 6 rats, and each rat was injected once intramuscularly on the rear leg.
The dose for each rat was 25 micromole per kg, intramuscularly.
The time to stop the experiment was set at 40 seconds to prevent the tail from cold sore. No cold sores were found within 40 sec. Five minutes after the drug was given to the rat, the flick test was performed every 10 minutes or more.

[3] = analgesic effect after intramuscular injection to guinea pigs; assay type: in vivo, guinea pig; conditions: 500 µM/kg and 250 µM/kg, Figure 7
Source text: (§1) Six male Sprague Dawley rats (175 to 225 g), and six male guinea pig(200 to 250 g) were used.

[4] = analgesic effect after intramuscular injection to rats, polynalbuphine derivative study; assay type: in vivo, Sprague Dawley rats
Description: In the experiment, a circulating cold ethanol bath with a temperature maintained at -20°C was set up. After dosing, the rat tail(1/3 from the tip) was immersed in the bath. The latency for the rat to flick its tail from the bath was measured to be the analgesic threshold. The effect of various opium alkaloid preparations can be determined with this test.
The analgesic effect can be calculated as follows: analgesic effect (%) = (flicking time after dosing - flicking time before dosing ) / (test terminated time - flicking time before dosing ) X 100% [formula]
as §1

[5] = half-life of dinalbuphine sebacoyl ester in dog blood, HPLC; assay type: in vitro ADME
Description: • (a) Dinalbuphine sebacoyl ester was dissolved in acetonitrile, the concentration was 12.5 mg/ml. • (b)200 ml of whole blood was collected from dog administered with the thus formed dinalbuphine sebacoyl ester soft drug, and was added with anticoagulant.
(§2) All blood collections were analyzed by HPLC.

[6] = half-life of dinalbuphine sebacoyl ester in human blood, HPLC; assay type: in vitro ADME
Description: • (a) Dinalbuphine sebacoyl ester was dissolved in acetonitrile, the concentration was 10 mg/ml. • (b) 250 ml of whole blood was collected from human administered with the thus formed dinalbuphine sebacoyl ester soft drug, and was added with anticoagulant.
as §2

[7] = pharmacokinetic study of long acting preparation in Beagle dog; assay type: in vivo, Beagle dogs
Description: Six Beagle dogs were used. Five Beagle dogs were intramuscularly injected with 30 mg/kg long acting sebacoyl dinalbuphine ester oily parenteral administration respectively, and another one was injected with 100 mg/kg long acting sebacoyl dinalbuphine ester oily parenteral administration. Blood samples were collected through the veins in front limbs of the dogs at 1, 2, 6, 24, 30, 48, 54, 72, 78, 96, 102, 120, 168, 192 hours. […] The relationship between time and concentration was analyzed by PCNONLIN computer program. Two-compartment model and pharmacokinetic parameters were calculated to depict absorption, distribution, metabolism, and excretion of drugs in the dogs.

[8] = half-life of dinalbuphine sebacoyl ester in rabbit blood, HPLC; assay type: in vitro ADME
Description: • (a) Dinalbuphine ester sebacoyl ester was dissolved in acetonitrile, the concentration was 5.2 mg/ml. • (b) 150 ml of whole blood was collected from rabbit administered with the thus formed dinalbuphine sebacoyl ester soft drug, and was added with anticoagulant.
as §2

[9] = half-life of dinalbuphine sebacoyl ester in rat blood, HPLC; assay type: in vitro ADME
Description: • (a) Dinalbuphine sebacoyl ester(SDN) was dissolved in acetonitrile, the concentration was 7.75 mg/ml. • (b) 250 ml of whole blood was collected from rat administered with the thus formed dinalbuphine sebacoyl ester soft drug, and was added with anticoagulant.
as §2

[10] = clinical / estimated analgesic duration in humans; assay type: in vivo; conditions: 125 µM/ kg administered to a human body
Description: The analgesic effect was extended to 4-5 days, when the dose administered was below 125 µM/kg. […] The same level of analgesic effect for intramuscular injection to rats was required at 15.625 µM/kg(6.165 mg/kg).
Therefore, the analgesic effect is estimated 4-5 days when 125 µM/ kg of sebacoyl dinalbuphine ester is administered to a human body.
The amount of the aforesaid injection was about 10 ml. However, the analgesic effect could not be maintained 4 to 5 days even upon administration of 88 ml of Malbuphine hydrochloride because of metabolism. Besides, such parenteral volume was not ideal for a single dose. This invention made an improvement. By diluting a single dose of sebacoyl dinalbuphine in 7.15 ml sesame oil form, parenteral administration could maintain the analgesic effect 4 to 5 days.

[11] = in vivo; cited from earlier work
[12] = after continuous use for 6 months; cited from earlier work
[13] = in vitro release of Nalbuphine from vehicles (dialysis bag, UV); assay type: physicochemical; conditions: Fig. 2, p<0.05

Question: With `Oc1ccc2c3c1O[C@H]1[C@@H](O)CC[C@@]4(O)[C@@H](C2)N(CC2CCC2)CC[C@]314` [Nalbuphine hydrochloride] as the compound, how does the half-life [1] read?
Answer: The half-life was ~60 min.

Question: What about the “maximal analgesic effect found at (dose)” value [2] of the same compound?
Answer: Its value is 100 mg/kg.

Question: And the analgesic effects [3]?
Answer: The analgesic effects was “significant analgesic effects”.

Question: And the analgesic effects ([4]; intramuscular injection, 15.625, 62.5, 250 µM/kg, Figure 6)?
Answer: Its analgesic effects is “significant analgesic effects”.

Question: Which “converted time, which converts 90% dinalbuphine sebacoyl ester(SDN) into Nalbuphine” value ([5]; dog) does the source give for `O=C(CCCCCCCCC(=O)Oc1ccc2c3c1O[C@H]1[C@@H](O)CC[C@@]4(O)[C@@H](C2)N(CC2CCC2)CC[C@]314)Oc1ccc2c3c1O[C@H]1[C@@H](O)CC[C@@]4(O)[C@@H](C2)N(CC2CCC2)CC[C@]314` [sebacoyl dinalbuphine ester] here?
Answer: The value was 95 min.

Question: And the half-life ([5]; dog blood test, read-out: half life)?
Answer: The half-life was 27.8 min.

Question: What about the half-life ([5]; dog plasma, n=3, read-out: Elimination Half-life) of the same compound?
Answer: Its half-life is 27.8 ± 0.5 min.

Question: And the half-life ([5]; dog whole blood, n=3, read-out: Elimination Half-life)?
Answer: Its half-life is 30.5 ± 0.8 min.

Question: And the half-life ([5]; red blood cells, dog red blood cell, n=3, read-out: Elimination Half-life)?
Answer: Its half-life is 33.4 ± 1.4 min.

Question: And the “converted time, which converts 90% dinalbuphine sebacoyl ester(SDN) into Nalbuphine” value ([6]; human)?
Answer: The value was 30 min.

Question: And the half-life ([6]; human blood test, read-out: half life)?
Answer: Its half-life is 9 min.

Question: And the half-life ([6]; human plasma, n=3, read-out: Elimination Half-life)?
Answer: The half-life was 9 ± 0.4 min.

Question: And the half-life ([6]; human whole blood, n=3, read-out: Elimination Half-life)?
Answer: Its half-life is 8.8 ± 0.4 min.

Question: And the half-life ([6]; red blood cells, human red blood cell, n=3, read-out: Elimination Half-life)?
Answer: Its half-life is 7.7 ± 0.4 min.

Question: What about the MRT ([7]; Beagle Dog 2, i.m., Dose 24.3 mg/kg) of the same compound?
Answer: The MRT was 78.8 H.

Question: And the MRT ([7]; Beagle Dog 2, i.m., Dose 81.0 mg/kg)?
Answer: The MRT was 127.2 H.

Question: And the MRT ([7]; Beagle dogs, 30 mg/kg i.m. oily injection, Mean of five dogs)?
Answer: Its MRT is 73.2 H.

Question: And the MRT ([7]; Beagle dogs, 30 mg/kg i.m. oily injection, individual dogs 1-5, listed as SDN, 30 mg/kg)?
Answer: The MRT was 84.3 H and 78.8 H and 61.1 H and 62.7 H and 79.1 H.

Question: What about the “kinetic across two doses” value ([7]; Beagle dogs, Table 6 vs Table 7) of the same compound?
Answer: The value was “linear kinetic”.

Question: And the “absorption in injection oil vehicle” value ([7]; Beagle dogs, i.m., Figures 10 and 11)?
Answer: The value was “zero order”.

Question: And the “converted time, which converts 90% dinalbuphine sebacoyl ester(SDN) into Nalbuphine” value ([8]; rabbit)?
Answer: Its value is 25 min.

Question: And the half-life ([8]; rabbit blood test, read-out: half life)?
Answer: The half-life was 7 min.

Question: What about the half-life ([8]; rabbit plasma, n=3, mean± S.E, read-out: Elimination Half-life) of the same compound?
Answer: The half-life was 6.98 ± 0.03 min.

Question: What about the half-life ([8]; rabbit whole blood, n=3, mean± S.E, read-out: Elimination Half-life) of the same compound?
Answer: Its half-life is 14.9 ± 1.3 min.

Question: What about the half-life ([8]; red blood cells, rabbit red blood cell, n=3, mean± S.E, read-out: Elimination Half-life) of the same compound?
Answer: Its half-life is 26.2 ± 4.8 min.

Question: And the “converted time, which converts 90% dinalbuphine sebacoyl ester(SDN) into Nalbuphine” value ([9]; rat)?
Answer: Its value is 10 min.

Question: And the half-life ([9]; rat blood test, read-out: half life)?
Answer: Its half-life is 2.8 min.

Question: What about the half-life ([9]; rat plasma, read-out: Elimination Half-life) of the same compound?
Answer: Its half-life is 2.8 min.

Question: What about the half-life ([9]; rat whole blood, n=3, mean± S.E, read-out: Elimination Half-life) of the same compound?
Answer: Its half-life is 2.2 ± 0.5 min.

Question: What about the half-life ([9]; red blood cells, rat red blood cell, n=3, mean± S.E, read-out: Elimination Half-life) of the same compound?
Answer: Its half-life is 2.3 ± 0.6 min.

Question: What about the “analgesic effect estimated (duration)” value [10] of the same compound?
Answer: The value was 4 to 5 days.

Question: What about the “50% analgesic effect was extended to” value ([4]; intramuscular injection of 125 µM/kg, Figure 9) of the same compound?
Answer: The value was 88 h.

Question: And the analgesic effects ([4]; intramuscular injection, 7.8125, 31.25, 125 µM/kg, Figure 8)?
Answer: Its analgesic effects is “proportional to the dose administered”.

Question: What about the “analgesic effect relative to Nalbuphine hydrochloride” value ([4]; intramuscular, Figure 9) of the same compound?
Answer: The value was 8.8 times.

Question: And the “analgesic effect was extended to” value ([4]; intramuscular, dose administered below 125 µM/kg)?
Answer: The value was 4 to 5 days.

Question: With `CN1CC[C@]23c4c5ccc(O)c4O[C@H]2[C@@H](O)C=C[C@H]3[C@H]1C5` [Morphine] as the compound, how does the “dose needed to elicit the same analgesic effect” value [11] read?
Answer: The value was 10 mg.

Question: Which results are given for `Oc1ccc2c3c1O[C@H]1[C@@H](O)CC[C@@]4(O)[C@@H](C2)N(CC2CCC2)CC[C@]314` [Nalbuphine]?
Answer: addiction, synergistic effect and respiratory inhibition [12]: no significant addiction and synergistic effect was found, but only slight respiratory inhibition; amount of released Nalbuphine free base ([13]; between 17 and 28 hours): less in the preparation with sesame oil than with peanut oil and the phosphate buffer; release rate ([13]; sesame oil as the vehicle vs the other three preparations, between 1 and 11 hours): slowest release rate; analgesic duration ([2]; 25 micromole per kg intramuscularly, in sesame oil, compared with each preparation of MonoNalbuphine derivatives, Fig. 5): significantly shorter

Question: Which “dose needed to elicit the same analgesic effect” value [11] does the source give for `Oc1ccc2c(c1)[C@@]13CCCC[C@@]1(O)[C@@H](C2)N(CC1CCC1)CC3` [Butorphanol] here?
Answer: The value was 2 mg.

Question: With `CN1CC[C@]23c4c5ccc(O)c4O[C@H]2[C@@H](O)C=C[C@H]3[C@H]1C5.Cl` [Morphine hydrochloride] as the compound, how does the “maximal analgesic effect found at (dose)” value [2] read?
Answer: The value was 10 mg/kg.
